Laboratory results reported in US8937039B2, “Peptide-based peroxidase inhibitors and methods of using same” (The Medical College of Wisconsin, Inc., priority 2009, dated 2015).
Entries after “also recorded” stand apart in the source; their conditions may differ. Residues, ends and D or L forms follow the SMILES beside them.

Columns and labels:
[1] = tested on: SS/Mcw rat hearts; assay: Ischemia/reperfusion injury in isolated perfused hearts; conditions: FIG. 5B
From the text: Ischemia/Reperfusion (I/R) Injury in Isolated Hearts. Rats used in this study received humane care in compliance with the Guide for the Care and Use of Laboratory Animals, by the National Research Council. Rats were maintained on a low salt (0.4% NaCl) diet with unlimited access to water. Environmental influences were minimized by maintaining rats in identical housing conditions. Dahl S (SS/Mcw male rats at 8 weeks of age were used for this study.
Modified Krebs-Henseleit bicarbonate buffer was prepared containing the following components (in mM): 118.5 NaCl, 25.0 NaHCO3, 4.8 KCl, 1.2 MgSO4.6H2O, and 1.2 KH2PO4 (pH 7.4 when gassed with 95% O2-5% CO2) in which the calcium content was 1.8. Glucose (11.1 mM) was added to the perfusate. Before use, all perfusion fluids were filtered through cellulose acetate membranes with a pore size of 5 μm. To this perfusate, drugs (KAA, KYC) were added as needed. Animals were weighed, and heparin was administered intraperitoneally based on weight (150 IU/kg). Anesthesia was induced with pentobarbital sodium (30 mg/kg ip). […] Left ventricular pressure (LVP) was measured isovolumetrically with a transducer connected to a thin, saline-filled latex balloon inserted into the left ventricle through the mitral valve from an incision in the left atrium. […]

[2] = target: T1, MPO (Homo sapiens, UniProt P05164); assay: MPO-catalyzed HOCl production (taurine/TMB assay); type: biochemical; set-up: purchased Lee Biosolutions (St. Louis, Mo.); conditions: for Dose-dependent effect on MPO-catalyzed HOCl production (in words): increasing concentrations, FIG. 14C/14D; for Effect on MPO HOCl production at equimolar concentration (in words): 12.5 μM
T1 sequence (P05164 49-745): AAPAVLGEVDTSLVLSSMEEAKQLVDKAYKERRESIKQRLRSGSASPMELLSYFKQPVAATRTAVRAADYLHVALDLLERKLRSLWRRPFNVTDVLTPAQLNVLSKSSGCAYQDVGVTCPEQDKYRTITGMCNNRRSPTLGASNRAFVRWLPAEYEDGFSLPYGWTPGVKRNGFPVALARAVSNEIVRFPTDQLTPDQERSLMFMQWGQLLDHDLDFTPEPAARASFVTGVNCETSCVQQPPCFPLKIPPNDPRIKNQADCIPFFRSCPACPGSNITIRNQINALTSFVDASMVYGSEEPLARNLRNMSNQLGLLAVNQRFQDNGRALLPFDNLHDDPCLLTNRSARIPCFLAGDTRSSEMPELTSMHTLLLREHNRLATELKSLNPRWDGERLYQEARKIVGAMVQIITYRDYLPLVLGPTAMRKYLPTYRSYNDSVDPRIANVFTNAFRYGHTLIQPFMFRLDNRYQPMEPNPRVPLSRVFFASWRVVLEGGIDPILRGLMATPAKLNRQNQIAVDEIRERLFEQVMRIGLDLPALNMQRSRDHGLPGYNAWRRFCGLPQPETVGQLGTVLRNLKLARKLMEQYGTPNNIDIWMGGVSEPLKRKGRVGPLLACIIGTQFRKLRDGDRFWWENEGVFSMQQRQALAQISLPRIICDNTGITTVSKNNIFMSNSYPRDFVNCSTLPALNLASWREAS
Protocol: MPO-mediated HOCl Production. MPO (20 nM) was incubated with H2O2 (50 μM), NaCl (150 mM), taurine (5 mM) and increasing concentrations of KYC in phosphate buffer (100 mM, pH 7.4) which also contained diethylene triamine pentaacetic acid (DTPA, 100 μM) to prevent non-specific, divalent metal cation oxidation for 30 min. Reactions were halted by addition of catalase. Chlorotaurine was quantified using the 3,3-,5,5-tetramethylbenzidine (TMB) assay. Briefly, 400 μL of reaction solution was mixed with 100 μL of 2 mM TMB, 100 μM NaI containing 10% dimethylformamide (DMF) in 400 mM acetate buffer (pH 5.4). After 5 min, absorbance (650 nm) was recorded on a UV/Vis spectrophotometer (Agilent Model 8453).
MPO-catalyzed HOCl Production: MPO (20 nM) was incubated with H2O2 (50 μM), NaCl (150 mM), taurine (5 mM) and increasing concentrations of KYC in a phosphate buffer (100 mM, pH 7.4) containing diethylene triamine pentaacetic acid (DTPA, 100 μM) to prevent non-specific, divalent metal cation oxidation for 30 min. Reactions were halted by addition of catalase (2,000 units/mL). Chlorotaurine was quantified using the TMB assay (66). Briefly, 400 μL of reaction solution was mixed with 100 μL of 2 mM TMB, 100 μM NaI containing 10% dimethylformamide (DMF) in 400 mM acetate buffer (pH 5.4). After 5 min, absorbance (650 nm) was recorded on a UV/Vis spectrophotometer (Agilent Model 8453).

[3] = target: T1, MPO; assay: MPO-mediated LDL oxidation (conjugated diene formation, 234 nm); type: biochemical; set-up: purchased Lee Biosolutions (St. Louis, Mo.); conditions: 25 μM; for MPO/H2O2/nitrite-mediated LDL oxidation (in words): H2O2 100 μM, NaNO2 100 μM; for MPO/H2O2-mediated LDL oxidation in the absence of nitrite (in words): without NaNO2
Protocol: MPO-mediated oxidation of LDL. […] LDL oxidation was monitored at 234 nm at room temperature on a HP UV/VIS spectrometer. Absorbance traces represent the average of duplicate experiments.
MPO-mediated LDL Oxidation. […] Rates of LDL oxidation were monitored at room temperature at 234 nm, the wavelength maximum for conjugated dienes.
MPO-mediated LDL Conjugated Diene Formation: Reaction mixtures contained LDL (0.15 mg/mL), NaNO2 (100 μM), H2O2 (100 μM), MPO (20 nM) and increasing concentrations of KYC or equimolar concentrations of various compounds in a phosphate buffer (100 mM, pH 7.4) containing DTPA (100 μM). Rates of LDL conjugated diene formation were determined by following changes in absorbance at 234 nm, the wavelength maximum for conjugated dienes, on a UV-Vis spectrophotometer (Agilent Model 8453) at room temperature.

[4] = Solubility in aqueous buffers; type: physicochemical
[5] = target: T1, MPO; conditions: reported, order of magnitude; cited from earlier work

| Compound | MPO/H2O2/nitrite-mediated LDL oxidation (in words) [3] | MPO/H2O2-mediated LDL oxidation in the absence of nitrite (in words) [3] | further results |
| --- | --- | --- | --- |
| CC(=O)N[C@@H](CCCCN)C(=O)N[C@@H](Cc1c[nH]c2ccccc12)C(=O)N[C@@H](CS)C(N)=O [KWC] (Ac-Lys-Trp-Cys-NH2) |  |  | Cardioprotection in SS/Mcw rat hearts (in words) [1]: increase cardioprotection |
| N-acetyl Lysyltyrosylcyeteine amide [KYS] | accelerated LDL oxidation |  | Dose-dependent effect on MPO-catalyzed HOCl production (in words) [2]: failed to inhibit; also recorded: not an inhibitor |
| N[C@@H](Cc1ccc(O)cc1)C(=O)N[C@@H](CS)C(=O)O [YC, reference compound] (H-Tyr-Cys-OH; N-terminus and C-terminus assumed) |  |  | Solubility in water / aqueous buffers (in words) [4]: difficult to dissolve in aqueous buffers |
| CC(=O)N[C@@H](CCCCN)C(=O)N[C@@H](Cc1ccccc1)C(=O)N[C@@H](CS)C(N)=O [KFC, N-acetyl Lysylphenylalanylcysteine amid] (Ac-Lys-Phe-Cys-NH2) | increased the lag phase and delayed, but did not totally inhibit |  | Dose-dependent effect on MPO-catalyzed HOCl production (in words) [2]: weaker inhibitor |
| N[C@@H](CCC(=O)N[C@@H](CS)C(=O)NCC(=O)O)C(=O)O [GSH, glutathione] | ineffective | inhibited; also recorded: did not increase LDL oxidation | Rate of reaction with MPO/H2O2 systems [5]: 10 to 100 M⁻¹ s⁻¹ |

The next lines start with results.

| MPO/H2O2/nitrite-mediated LDL oxidation (in words) [3] | MPO/H2O2-mediated LDL oxidation in the absence of nitrite (in words) [3] | Compound | further results |
| --- | --- | --- | --- |
| accelerated and enhanced | increased | N[C@@H](Cc1ccc(O)cc1)C(=O)O [Tyr, tyrosine] | Effect on MPO HOCl production at equimolar concentration (in words) [2]: little, if any effect; Effect on MPO HOCl production at equimolar concentration (in words) ([2]; listed as Tyrosine): little if any effect |
| did not inhibit but actually enhanced | increased | N[C@@H](Cc1c[nH]c2ccccc12)C(=O)O [Trp, tryptophan] | Effect on MPO HOCl production at equimolar concentration (in words) [2]: effective inhibitor |
